According to patent publication US12312332B2 (Merck Sharp & Dohme LLC., priority 2019, dated 2025):

Molecular target: T1, human OX2R (Homo sapiens, UniProt O43614)
T1 construct: expressed in transfected cells; host or cells: Chinese hamster ovary (CHO) cells, kept under G418 selection
T1 sequence (O43614 1-444): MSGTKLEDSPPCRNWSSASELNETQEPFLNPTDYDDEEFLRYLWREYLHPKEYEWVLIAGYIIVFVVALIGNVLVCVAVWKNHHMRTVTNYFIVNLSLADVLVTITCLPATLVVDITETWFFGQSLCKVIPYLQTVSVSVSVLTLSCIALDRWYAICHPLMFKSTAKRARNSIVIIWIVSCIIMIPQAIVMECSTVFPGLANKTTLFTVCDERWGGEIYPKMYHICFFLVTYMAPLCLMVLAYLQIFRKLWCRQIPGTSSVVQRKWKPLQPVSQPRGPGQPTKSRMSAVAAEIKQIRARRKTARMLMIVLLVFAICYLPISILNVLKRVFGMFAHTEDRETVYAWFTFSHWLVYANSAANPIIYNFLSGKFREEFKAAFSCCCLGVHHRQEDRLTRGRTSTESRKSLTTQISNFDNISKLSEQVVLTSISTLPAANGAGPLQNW
Test: IPOne (IP-One) orexin receptor agonist assay in CHO cells expressing human OX2R
Assay type: cell-based
Conditions: for EC50: CHO cells expressing human OX2R, IP-One detection, 2 hours incubation, four parameter logistic fit, read-out: OX2R Potency, EC50; for % max agonist effect (Emax): human OX2R, percentage of sample raw value/mean max effect (reference compound at 1 uM with 100% activity)
Text: The utility of the compounds in accordance with the present invention as orexin receptor OX1R and/or OX2R agonists may be readily determined without undue experimentation by methodology well known in the art. Both the OX1R and/or OX2R G-coupled protein receptors (GPCRs) couple through the Gaq signaling pathway, which ultimately promotes calcium mobilization via inositol triphosphate (IP3) production. […] The utility of the compounds in accordance with the present invention as orexin receptor OX1R and/or OX2R agonists may be determined utilizing this assay.
In a typical experiment, the OX1 and OX2 receptor agonist activity is determined in accordance with the following general experimental method. Chinese hamster ovary (CHO) cells expressing human OX1R and/or the human OX2R were grown in Iscove's modified DMEM containing glutaMAX™, 1% G418, 100 U/mL penicillin, 100 μg/mL streptomycin and 10% heat-inactivated qualified fetal bovine serum (FBS). […] During this incubation, IP-one detection reagents were prepared (38:1:1 lysis buffer:D2:AB-cryptate reagents).
For each compound, data were fit to a four parameter logistic fit (ActivityBase software) and the EC50 was reported as the inflection point of the resulting curve. Percent effect for each test compound was determined as the percentage of sample raw value/mean max effect, where the mean max effect was derived from the mean raw value of 32 control wells per assay plate (using Orexin A (cat #003-30) at 1 μM for human OX1R and a reference compound at 1 uM with 100% activity previously established by comparison to Orexin A for human OX2R). The intrinsic orexin receptor agonist activity of a compound which may be used in the present invention may be determined by these assays.

EC50 [nM]	% max agonist effect (Emax) [%]	Structure (SMILES)
0.72	98.6	C[C@@H]1C[C@H](NS(C)(=O)=O)[C@H](CO[C@H]2CC[C@@H](c3cccc(F)c3)CC2)N1c1[nH]ccc(=O)c1F [Example 164, N-((2R,3S,5R)-1-(3-fluoro-4-oxo-1,4-dihydropyridin-2-yl)-2-((((CIS)-4-(3-fluorophenyl)cyclohexyl)oxy)methyl)-5-methylpyrrolidin-3-yl)methanesulfonamide]
1.8	97.9	C[C@@H]1C[C@H](NS(C)(=O)=O)[C@H](CO[C@H]2CC[C@@H](c3ccccc3)CC2)N1c1nnnn1C [Example 80, N-((2R,3S,5R)-5-Methyl-1-(1-methyl-1H-tetrazol-5-yl)-2-((((CIS)-4-phenylcyclohexyl)oxy)-methyl)pyrrolidin-3-yl)methanesulfonamide]
1670	96.0	CS(=O)(=O)N[C@H]1CCN(c2ccncc2C(F)(F)F)[C@H]1CO[C@H]1CC[C@@H](c2ccccc2)CC1 [Example 70, N-((2R,3S)-2-((((CIS)-4-phenylcyclohexyl)oxy)methyl)-1-(3-(trifluoromethyl)pyridin-4-yl)pyrrolidin-3-yl)methanesulfonamide]
1700	98.0	Cc1sc(N2CC[C@H](NS(C)(=O)=O)[C@@H]2CO[C@H]2CC[C@@H](c3ccccc3)CC2)nc1Br [Example 106, N-((2R,3S)-1-(4-bromo-5-methylthiazol-2-yl)-2-((((CIS)-4-phenylcyclohexyl)oxy)methyl)pyrrolidin-3-yl)methanesulfonamide]
397	99.4	CS(=O)(=O)N[C@H]1CCN(c2cc(O)ncn2)[C@H]1CO[C@H]1CC[C@@H](c2ccccc2)CC1 [Example 150, N-((2R,3S)-1-(6-hydroxypyrimidin-4-yl)-2-((((CIS)-4-phenylcyclohexyl)oxy)methyl)pyrrolidin-3-yl)methanesulfonamide]
20.7	101.7	CS(=O)(=O)N[C@H]1CCN(c2ccc[n+]([O-])c2)[C@H]1CO[C@H]1CC[C@@H](c2ccccc2)CC1 [Example 134]
162	100.9	CS(=O)(=O)N[C@H]1CCN(c2ccc(OC(F)F)nc2)[C@H]1CO[C@H]1CC[C@@H](c2ccccc2)CC1 [Example 58, N-((2R,3S)-1-(6-(difluoromethoxy)pyridin-3-yl)-2-((((CIS)-4-phenylcyclohexyl)oxy)methyl)pyrrolidin-3-yl)methanesulfonamide]
2380	91.4	COc1ncc(N2CC[C@H](NS(C)(=O)=O)[C@@H]2CO[C@H]2CC[C@@H](c3ccccc3)CC2)cc1C [Example 55, N-((2R,3S)-1-(6-methoxy-5-methylpyridin-3-yl)-2-((((CIS)-4-phenylcyclohexyl)oxy)methyl)pyrrolidin-3-yl)methanesulfonamide]
33.2	100.2	Cn1ccc(N2CC[C@H](NS(C)(=O)=O)[C@@H]2CO[C@H]2CC[C@@H](c3ccccc3)CC2)cc1=O [Example 118, N-((2R,3S)-1-(1-methyl-2-oxo-1,2-dihydropyridin-4-yl)-2-((((CIS)-4-phenylcyclohexyl)oxy)methyl)pyrrolidin-3-yl)methanesulfonamide]
20.4	101.0	CS(=O)(=O)N[C@H]1CCN(c2cccnc2)[C@H]1CO[C@H]1CC[C@@H](c2ccccc2)CC1 [Example 20, N-((2R,3S)-2-((((CIS)-4-phenylcyclohexyl)oxy)methyl)-1-(pyridin-3-yl)pyrrolidin-3-yl)methanesulfonamide]
649	99.2	CS(=O)(=O)N[C@H]1CCN(c2cncc(OC(F)F)c2)[C@H]1CO[C@H]1CC[C@@H](c2ccccc2)CC1 [Example 52, N-((2R,3S)-1-(5-(difluoromethoxy)pyridin-3-yl)-2-((((CIS)-4-phenylcyclohexyl)oxy)methyl)pyrrolidin-3-yl)methanesulfonamide]
1.2	99.9	CS(=O)(=O)N[C@H]1CCN(c2nccc(O)c2F)[C@H]1CO[C@H]1CC[C@@H](c2ccccc2)CC1 [Example 72, N-((2R,3S)-1-(3-fluoro-4-hydroxypyridin-2-yl)-2-((((CIS)-4-phenylcyclohexyl)oxy)methyl)pyrrolidin-3-yl)methanesulfonamide]
23.8	101.1	CS(=O)(=O)N[C@H]1CCN(c2ccc(CO)nc2)[C@H]1CO[C@H]1CC[C@@H](c2ccccc2)CC1 [Example 71, N-((2R,3S)-1-(6-(hydroxymethyl)pyridin-3-yl)-2-((((CIS)-4-phenylcyclohexyl)oxy)methyl)pyrrolidin-3-yl)methanesulfonamide]
0.76	101.4	CS(=O)(=O)N[C@H]1CCN(c2ncc(Cl)c(O)c2F)[C@H]1CO[C@H]1CC[C@@H](c2cccc(F)c2)CC1 [Example 98, N-((2R,3S)-1-(5-chloro-3-fluoro-4-hydroxypyridin-2-yl)-2-((((CIS)-4-(3-fluorophenyl)cyclohexyl)oxy)methyl)pyrrolidin-3-yl)methanesulfonamide]
> 10000	75.3	CS(=O)(=O)N[C@H]1CCN(c2ccc(C#N)cn2)[C@H]1CO[C@H]1CC[C@@H](c2ccccc2)CC1 [Example 132, N-((2R,3S)-1-(5-cyanopyridin-2-yl)-2-((((CIS)-4-phenylcyclohexyl)oxy)methyl)pyrrolidin-3-yl)methanesulfonamide]
330	100.6	Cc1cncc(N2CC[C@H](NS(C)(=O)=O)[C@@H]2CO[C@H]2CC[C@@H](c3ccccc3)CC2)n1 [Example 62, N-((2R,3S)-1-(6-methylpyrazin-2-yl)-2-((((CIS)-4-phenylcyclohexyl)oxy)methyl)pyrrolidin-3-yl)methanesulfonamide]
4000	70.8	CS(=O)(=O)N[C@H]1CCN(c2ccc(C(F)(F)F)cn2)[C@H]1CO[C@H]1CC[C@@H](c2ccccc2)CC1 [Example 130, N-((2R,3S)-2-((((CIS)-4-phenylcyclohexyl)oxy)methyl)-1-(5-(trifluoromethyl)pyridin-2-yl)pyrrolidin-3-yl)methanesulfonamide]
703	97.9	Cc1sc(N2CC[C@H](NS(C)(=O)=O)[C@@H]2CO[C@H]2CC[C@@H](c3ccccc3)CC2)nc1O [Example 105, N-((2R,3S)-1-(4-hydroxy-5-methylthiazol-2-yl)-2-((((CIS)-4-phenylcyclohexyl)oxy)methyl)pyrrolidin-3-yl)methanesulfonamide]
105	100.0	Cn1ccnc1N1CC[C@H](NS(C)(=O)=O)[C@@H]1CO[C@H]1CC[C@@H](c2ccccc2)CC1 [Example 28, N-((2R,3S)-1-(1-methyl-1H-imidazol-2-yl)-2-((((CIS)-4-phenylcyclohexyl)oxy)methyl)pyrrolidin-3-yl)methanesulfonamide]
0.27	101.2	CS(=O)(=O)N[C@H]1CCN(c2cc(O)c(F)cn2)[C@H]1CO[C@H]1CC[C@@H](c2cccc(F)c2)CC1 [Example 99, N-((2R,3S)-1-(5-fluoro-4-hydroxypyridin-2-yl)-2-((((CIS)-4-(3-fluorophenyl)cyclohexyl)oxy)methyl)pyrrolidin-3-yl)methanesulfonamide]
1820	95.6	CS(=O)(=O)N[C@H]1CCN(c2cc(C(F)F)ccn2)[C@H]1CO[C@H]1CC[C@@H](c2ccccc2)CC1 [Example 143, N-((2R,3S)-1-(4-(difluoromethyl)pyridin-2-yl)-2-((((CIS)-4-phenylcyclohexyl)oxy)methyl)pyrrolidin-3-yl)methanesulfonamide]

Structure (SMILES)	EC50 [nM]	% max agonist effect (Emax) [%]
CS(=O)(=O)N[C@H]1CCN(c2cncc(-c3ccccc3)c2)[C@H]1CO[C@H]1CC[C@@H](c2ccccc2)CC1 (relative stereo) [Example 1, N-((CIS)-2-((((CIS)-4-Phenylcyclohexyl)oxy)methyl)-1-(5-phenylpyridin-3-yl)pyrrolidin-3-yl)methanesulfonamide]	> 10000	35.7
